# Experimental data from US20070099927A1, “Aminoalkyl-pyrazinones and-pyridones as thrombin inhibitors” (priority 2003, published 2007).
# Target: thrombin (Homo sapiens, UniProt P00734)
# Experiment: Ki determinations thrombin, fluorogenic substrate Tosyl-GPR-AMC
# Type: biochemical
# Conditions: 20° C., thrombin 100 pM, Tosyl-GPR-AMC 20 μM, HBS pH 7.4; Ki class
# Procedure: The Ki determinations were carried out at 20° C. with the fluorogenic substrate Tosyl-GPR-AMC (Bachem, Heidelberg, Germany; λexc=370 nm, λem=450 nm) at a thrombin concentration of 100 pM in HBS pH 7.4. The substrate was added to a final concentration of 20 μM in a total assay volume of 100 μl. The enzymatic reaction was started by addition of substrate. The emission at 450 nm was monitored in 1 minute intervals for 10 minutes using a polarstar reader (BMG Laboratories, Offenburg, Germany). Initial velocities of the control and the inhibited reactions (vo and vi) were estimated in FU/min at different compound concentrations. The inhibition constants were calculated using the Michaelis-Menten equation for competitive inhibition.
row,SMILES,Ki [µM]
1,"Cc1cnc(NCCC2CCCCN2C)c(=O)n1CCNCc1n[nH]c2ccc(Cl)cc12 (single isomer, unassigned) [95 (E1), 1-{2-[(5-Chloro-1H-indazol-3-ylmethyl)-amino]-ethyl}-6-methyl-3-[2-(1-methyl-piperidin-2-yl)-ethylamino]-1H-pyrazin-2-one]",< 0.005
2,"Cc1cnc(NCCC2CCCCN2C)c(=O)n1CCNCc1n[nH]c2ccc(Cl)cc12 (single isomer, unassigned) [95 (E2), 1-{2-[(5-Chloro-1H-indazol-3-ylmethyl)-amino]-ethyl}-6-methyl-3-[2-(1-methyl-piperidin-2-yl)-ethylamino]-1H-pyrazin-2-one]",< 0.005
3,"O=c1c(NCCC2CCCCN2)ncc(Cl)n1CCNCc1n[nH]c2ccc(Cl)cc12 (single isomer, unassigned) [101 (E2), 6-Chloro-1-{2-[(5-chloro-1H-indazol-3-ylmethyl)-amino]-ethyl}-3-(2-piperidin-2-yl-ethylamino)-1H-pyrazin-2-one]",< 0.005
4,Cc1cnc(NC(Cc2ccccc2)C(N)=O)c(=O)n1CCNCCc1cccc(Cl)c1 (stereo not shown) [Example 59],0.03 to 0.2
5,"NC(=O)CN1CCCCC1CCNc1ncc(Cl)n(CCNCc2n[nH]c3ccc(Cl)cc23)c1=O (stereo not shown) [Example 96, 2-{2-[2-(5-Chloro-4-{2-[(5-chloro-1H-indazol-3-ylmethyl)amino]-ethyl}-3-oxo-3,4-dihydro-pyrazin-2-ylamino)-ethyl]-piperidin-1-yl}-acetamide]",0.005 to 0.03
6,"O=C(O)CN1CCCCC1CCNc1ncc(Cl)n(CCNCc2n[nH]c3ccc(Cl)cc23)c1=O (stereo not shown) [Example 97, {2-[2-(5-Chloro-4-{2-[(5-chloro-1H-indazol-3-ylmethyl)-amino]-ethyl}-3-oxo-3,4-dihydro-pyrazin-2-ylamino)-ethyl]-piperidin-1-yl}acetic acid]",< 0.005
7,Cc1cnc(NCCC2CCCCN2)c(=O)n1CCNCc1cccc(Cl)c1 (stereo not shown) [Example 102],0.005 to 0.03

# The next lines start with the values.
row,Ki [µM],SMILES
1,< 0.005,"Cc1cnc(NCC(F)(F)C2CCCCN2)c(=O)n1CCNCc1n[nH]c2ccc(Cl)cc12 (single isomer, unassigned) [85 (E1)]"
2,0.03 to 0.2,Cc1nc(N)ccc1CNCCn1c(Cl)cnc(NCC(F)(F)c2ccccn2)c1=O [Example 52]
3,0.03 to 0.2,Cc1cnc(NCCNc2ccccn2)c(=O)n1CCNCc1cccc(Cl)c1 [Example 56]
4,< 0.005,O=c1c(NCC(F)(F)c2ccccn2)ncc(Cl)n1CCNCc1n[nH]c2ccc(Cl)cc12 [Example 74]
5,< 0.005,O=c1c(NCC(F)(F)c2cccc[n+]2[O-])ncc(Cl)n1CCNCc1n[nH]c2ccc(Cl)cc12 [Example 82]
6,< 0.005,O=c1c(NCC(F)(F)c2cccc[n+]2[O-])ncc(Cl)n1CCNCCc1cccc(Cl)c1 [Example 83]
7,0.005 to 0.03,Cc1nc(N)ccc1CNCCn1c(Cl)cnc(NCC(F)(F)c2cccc[n+]2[O-])c1=O [Example 84]
8,< 0.005,O=c1c(NCCc2ccccn2)ncc(Cl)n1CCNCc1n[nH]c2ccc(Cl)cc12 [Example 92]
9,0.03 to 0.2,Cc1cnc(NCCc2ccccn2)c(=O)n1CCNCCc1nc2ccc(Cl)cc2[nH]1 [Example 99]
